Test results taken from patent publication US20200164034A1, “METHODS FOR IMPROVING SEX-DIMORPHIC RESPONSES TO TARGETED THERAPY IN MELANOMA” (Board of Regents, The University of Texas System, priority 2018, published 2020).

How the values were obtained:
Assay type in all cases: cell-based, human
[1] = tested on: BRAFV600E melanoma cell lines; test: Hormonal co-treatment in vitro: proliferative response to DT; conditions: cell culture, co-treatment with dabrafenib 1 μM and trametinib 100 nM
[2] = tested on: BRAFV600E melanoma cell lines; test: Hormonal co-treatment in vitro: cell cycle response to DT; conditions: cell culture, co-treatment with dabrafenib 1 μM and trametinib 100 nM
Protocol: (§1) In parallel, hormonal perturbations were evaluated in vitro using a panel of BRAFV600E melanoma cell lines derived from melanoma patients of the institution.
(§2) Melanoma cell lines derived from tumors of patients treated at UT MD Anderson Cancer Center under the TIL program were obtained from Dr. Chantale Bernatchez and Dr. Scott Woodman. For these studies, n=5 male (2373, 2400, 2650, 2800 and 624-mel) and n=5 female (2153, 2333, 2379, 2508, 2510) lines were selected based on carriage of BRAF^V600E/K mutations and avoidance of prior exposure in vivo to MAPK blockade therapies. Cells were maintained in phenol red-free RPMI-1640 supplemented with 10% heat-inactivated FBS, 1% GlutaMAX and 1% Pencillin/Streptomycin (all Gibco). LNCaP, MCF7 and PC3 cell lines were obtained from institutional stocks and maintained in RPMI-1640 supplemented as above (LNCaP, MCF7) or DMEM/F12 supplemented as above (PC3). All cell lines were confirmed mycoplasma negative using the Lonza MycoALERT kit prior to use, and authenticated by STR profiling via the MD Anderson Characterized Cell Line Core. […]

[3] = tested on: BRAFV600E melanoma cell lines; test: Hormonal co-treatment in vitro: apoptosis response to DT; conditions: cell culture, co-treatment with dabrafenib 1 μM and trametinib 100 nM, 72 hours
Protocol: as §1
as §2, with “(PC3).” for “(PC3). All cell lines were confirmed mycoplasma negative using the Lonza MycoALERT kit prior to use, and authenticated by STR profiling via the MD Anderson Characterized Cell Line Core.”
Cells were plated into 6-well plates at 250,000 cells/well in full growth media and allowed to adhere overnight prior to drug treatment as shown in results in reduced-serum medium (5% FBS, phenol red-free RPMI-1640). […] Data acquisition by flow cytometry was performed within 2 hours of cell harvest and analyzed in FlowJo after gating on cell size, singlets, and applying Curly Quadrant gates to PI vs YO-PRO-1 fluorescence.

CNC(=O)c1ccc(N2C(=S)N(c3ccc(C#N)c(C(F)(F)F)c3)C(=O)C2(C)C)cc1F [enzalutamide]
no significant effects: effect on proliferative response to DT treatment [1] | effect on cell cycle response to DT treatment [2] | effect on apoptosis response to DT treatment [3]

C[C@]12CC[C@H]3[C@@H](CCC4=CC(=O)CC[C@@]43C)[C@@H]1CC[C@@H]2O [testosterone]
no significant effects: effect on proliferative response to DT treatment [1] | effect on cell cycle response to DT treatment [2] | effect on apoptosis response to DT treatment [3]
